Assay results from PubChem BioAssay (NCI).
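Step 1: Grow cells in 96-well plates. Step 2: Expose to compound for 48 hours at 5 concentrations. Step 3: Interpolate endpoints linearly; if unreached, use highest concentration. The concentration for full growth arrest is given as TGI.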

Columns and labels:
Assay in all cases: DTP human tumour cell line panel, 48 h
A498 renal = system: A498 renal
A549 NSCLC = system: A549 NSCLC
BT-549 breast = system: BT-549 breast
CAKI-1 renal = system: CAKI-1 renal
CCRF-CEM leukemia = system: CCRF-CEM leukemia
COLO 205 colon = system: COLO 205 colon
HCC-2998 colon = system: HCC-2998 colon
HCT-116 colon = system: HCT-116 colon
HCT-15 colon = system: HCT-15 colon
HOP-62 NSCLC = system: HOP-62 NSCLC
HOP-92 NSCLC = system: HOP-92 NSCLC
HT29 colon = system: HT29 colon
IGROV1 ovarian = system: IGROV1 ovarian
K-562 leukemia = system: K-562 leukemia
KM12 colon = system: KM12 colon
MDA-MB-435 = system: MDA-MB-435
MDA-N = system: MDA-N
MOLT-4 leukemia = system: MOLT-4 leukemia
NCI-H23 lung = system: NCI-H23 lung
NCI-H460 lung = system: NCI-H460 lung
NCI-H522 lung = system: NCI-H522 lung
OVCAR-3 ovarian = system: OVCAR-3 ovarian
OVCAR-4 ovarian = system: OVCAR-4 ovarian
OVCAR-5 ovarian = system: OVCAR-5 ovarian
PC-3 prostate = system: PC-3 prostate
RPMI-8226 leukemia = system: RPMI-8226 leukemia
SF-295 CNS = system: SF-295 CNS
SK-MEL-2 melanoma = system: SK-MEL-2 melanoma
SK-MEL-28 melanoma = system: SK-MEL-28 melanoma
SK-MEL-5 melanoma = system: SK-MEL-5 melanoma
SK-OV-3 ovarian = system: SK-OV-3 ovarian
SNB-19 CNS = system: SNB-19 CNS
SNB-75 CNS = system: SNB-75 CNS
SW-620 colon = system: SW-620 colon
U251 CNS = system: U251 CNS
UACC-257 melanoma = system: UACC-257 melanoma
UACC-62 melanoma = system: UACC-62 melanoma
UO-31 renal = system: UO-31 renal
786-0 renal = system: 786-0 renal
ACHN renal = system: ACHN renal
DU-145 prostate = system: DU-145 prostate
EKVX NSCLC = system: EKVX NSCLC
HL-60(TB) leukemia = system: HL-60(TB) leukemia
HS 578T breast = system: HS 578T breast
LOX IMVI melanoma = system: LOX IMVI melanoma
M14 melanoma = system: M14 melanoma
MALME-3M melanoma = system: MALME-3M melanoma
MCF7 breast = system: MCF7 breast
NCI-H226 lung = system: NCI-H226 lung
OVCAR-8 ovarian = system: OVCAR-8 ovarian
SF-268 CNS = system: SF-268 CNS
SF-539 CNS = system: SF-539 CNS
SR leukemia = system: SR leukemia
TK-10 renal = system: TK-10 renal
MDA-MB-231 breast = system: MDA-MB-231 breast
NCI/ADR-RES ovarian = system: NCI/ADR-RES ovarian
RXF 393 renal = system: RXF 393 renal
SN12C renal = system: SN12C renal

Compound: CC(=O)OC1COC(n2c3ccccc3c3ccc4c5ccccc5[nH]c4c32)C(OC(C)=O)C1OC(C)=O (stereo not drawn)
- TGI (A498 renal): 77.7 µM
- TGI (A549 NSCLC): > 100 µM
- TGI (BT-549 breast): > 100 µM
- TGI (CAKI-1 renal): 65.9 µM
- TGI (CCRF-CEM leukemia): > 100 µM
- TGI (COLO 205 colon): > 100 µM
- TGI (HCC-2998 colon): > 100 µM
- TGI (HCT-116 colon): > 100 µM
- TGI (HCT-15 colon): > 100 µM
- TGI (HOP-62 NSCLC): 53.3 µM
- TGI (HOP-92 NSCLC): 87.3 µM
- TGI (HT29 colon): 62.8 µM
- TGI (IGROV1 ovarian): 30.8 µM
- TGI (K-562 leukemia): 82.4 µM
- TGI (KM12 colon): 37.9 µM
- TGI (MDA-MB-435): > 100 µM
- TGI (MDA-N): > 100 µM
- TGI (MOLT-4 leukemia): > 100 µM
- TGI (NCI-H23 lung): > 100 µM
- TGI (NCI-H460 lung): 57.6 µM
- TGI (NCI-H522 lung): 44.6 µM
- TGI (OVCAR-3 ovarian): > 100 µM
- TGI (OVCAR-4 ovarian): > 100 µM
- TGI (OVCAR-5 ovarian): > 100 µM
- TGI (PC-3 prostate): 96.5 µM
- TGI (RPMI-8226 leukemia): > 100 µM
- TGI (SF-295 CNS): 33.3 µM
- TGI (SK-MEL-2 melanoma): > 100 µM
- TGI (SK-MEL-28 melanoma): > 100 µM
- TGI (SK-MEL-5 melanoma): > 100 µM
- TGI (SK-OV-3 ovarian): 52.1 µM
- TGI (SNB-19 CNS): > 100 µM
- TGI (SNB-75 CNS): 33.2 µM
- TGI (SW-620 colon): > 100 µM
- TGI (U251 CNS): 74.2 µM
- TGI (UACC-257 melanoma): > 100 µM
- TGI (UACC-62 melanoma): > 100 µM
- TGI (UO-31 renal): > 100 µM

Compound: O=C(O)C(C(C(=O)O)P(=O)(O)O)P(=O)(O)O (stereo not drawn)
- TGI (786-0 renal): > 100 µM
- TGI (A498 renal): > 100 µM
- TGI (A549 NSCLC): > 100 µM
- TGI (ACHN renal): > 100 µM
- TGI (BT-549 breast): > 100 µM
- TGI (CCRF-CEM leukemia): > 100 µM
- TGI (COLO 205 colon): > 100 µM
- TGI (DU-145 prostate): > 100 µM
- TGI (EKVX NSCLC): > 100 µM
- TGI (HCC-2998 colon): > 100 µM
- TGI (HCT-116 colon): > 100 µM
- TGI (HCT-15 colon): > 100 µM
- TGI (HL-60(TB) leukemia): > 100 µM
- TGI (HOP-92 NSCLC): > 100 µM
- TGI (HS 578T breast): > 100 µM
- TGI (HT29 colon): > 100 µM
- TGI (IGROV1 ovarian): > 100 µM
- TGI (K-562 leukemia): > 100 µM
- TGI (KM12 colon): > 100 µM
- TGI (LOX IMVI melanoma): > 100 µM
- TGI (M14 melanoma): > 100 µM
- TGI (MALME-3M melanoma): > 100 µM
- TGI (MCF7 breast): > 100 µM
- TGI (MDA-MB-435): > 100 µM
- TGI (MDA-N): > 100 µM
- TGI (MOLT-4 leukemia): > 100 µM
- TGI (NCI-H226 lung): > 100 µM
- TGI (OVCAR-3 ovarian): > 100 µM
- TGI (OVCAR-4 ovarian): > 100 µM
- TGI (OVCAR-5 ovarian): > 100 µM
- TGI (OVCAR-8 ovarian): > 100 µM
- TGI (PC-3 prostate): > 100 µM
- TGI (RPMI-8226 leukemia): > 100 µM
- TGI (SF-268 CNS): > 100 µM
- TGI (SF-539 CNS): > 100 µM
- TGI (SK-MEL-2 melanoma): > 100 µM
- TGI (SK-MEL-28 melanoma): > 100 µM
- TGI (SK-MEL-5 melanoma): > 100 µM
- TGI (SK-OV-3 ovarian): > 100 µM
- TGI (SNB-19 CNS): > 100 µM
- TGI (SNB-75 CNS): > 100 µM
- TGI (SR leukemia): > 100 µM
- TGI (SW-620 colon): > 100 µM
- TGI (TK-10 renal): > 100 µM
- TGI (U251 CNS): > 100 µM
- TGI (UACC-62 melanoma): > 100 µM
- TGI (UO-31 renal): > 100 µM

Compound: CCOC(=O)Cc1cc(=O)oc2cc(O)ccc12
- TGI (786-0 renal): > 100 µM
- TGI (A498 renal): > 100 µM
- TGI (A549 NSCLC): > 100 µM
- TGI (ACHN renal): > 100 µM
- TGI (BT-549 breast): > 100 µM
- TGI (CAKI-1 renal): > 100 µM
- TGI (CCRF-CEM leukemia): > 100 µM
- TGI (COLO 205 colon): > 100 µM
- TGI (DU-145 prostate): > 100 µM
- TGI (EKVX NSCLC): > 100 µM
- TGI (HCT-116 colon): > 100 µM
- TGI (HCT-15 colon): > 100 µM
- TGI (HL-60(TB) leukemia): > 100 µM
- TGI (HS 578T breast): > 100 µM
- TGI (HT29 colon): > 100 µM
- TGI (IGROV1 ovarian): > 100 µM
- TGI (K-562 leukemia): > 100 µM
- TGI (KM12 colon): > 100 µM
- TGI (LOX IMVI melanoma): > 100 µM
- TGI (M14 melanoma): > 100 µM
- TGI (MALME-3M melanoma): > 100 µM
- TGI (MDA-MB-231 breast): > 100 µM
- TGI (MDA-MB-435): > 100 µM
- TGI (MDA-N): > 100 µM
- TGI (MOLT-4 leukemia): > 100 µM
- TGI (NCI-H226 lung): > 100 µM
- TGI (NCI-H23 lung): > 100 µM
- TGI (NCI-H460 lung): > 100 µM
- TGI (NCI-H522 lung): > 100 µM
- TGI (NCI/ADR-RES ovarian): > 100 µM
- TGI (OVCAR-3 ovarian): > 100 µM
- TGI (OVCAR-5 ovarian): > 100 µM
- TGI (OVCAR-8 ovarian): > 100 µM
- TGI (PC-3 prostate): > 100 µM
- TGI (RPMI-8226 leukemia): > 100 µM
- TGI (RXF 393 renal): > 100 µM
- TGI (SF-268 CNS): > 100 µM
- TGI (SF-295 CNS): > 100 µM
- TGI (SF-539 CNS): > 100 µM
- TGI (SK-MEL-2 melanoma): > 100 µM
- TGI (SK-MEL-28 melanoma): > 100 µM
- TGI (SK-MEL-5 melanoma): > 100 µM
- TGI (SK-OV-3 ovarian): > 100 µM
- TGI (SN12C renal): > 100 µM
- TGI (SNB-19 CNS): > 100 µM
- TGI (SNB-75 CNS): > 100 µM
- TGI (SR leukemia): > 100 µM
- TGI (SW-620 colon): > 100 µM
- TGI (TK-10 renal): > 100 µM
- TGI (U251 CNS): > 100 µM
- TGI (UACC-257 melanoma): > 100 µM
- TGI (UACC-62 melanoma): > 100 µM
- TGI (UO-31 renal): > 100 µM
